Nine compounds from patent US6979686B1, “Substituted pyrazoles as p38 kinase inhibitors” (Pharmacia Corporation, priority 2001, dated 2005) can be followed below.

One may read the IC50 as the concentration at which inhibition is half-maximal.

Assay [1] addresses T1, human GST-p38 kinase alpha (Homo sapiens, UniProt Q16539).
T1 construct: made in house; host or cells: E. coli DH10B
Kind of assay: p38 kinase in vitro assay, second format, phosphorylation of EGFRP with 33P-ATP. The class given is biochemical. Here is the method:
The ability of compounds to inhibit human p38 kinase alpha was evaluated using two in vitro assay methods. In the first method, activated human p38 kinase alpha phosphorylates a biotinylated substrate, PHAS-I (phosphorylated heat and acid stable protein-insulin inducible), in the presence of gamma ^32P-ATP (^32P-ATP). PHAS-I was biotinylated prior to the assay and provides a means of capturing the substrate which is phosphorylated during the assay. p38 Kinase was activated by MKK6. Compounds were tested in 10 fold serial dilutions over the range of 100 μM to 0.001 μM using 1% DMSO. Each concentration of inhibitor was tested in triplicate.
A second assay format was also employed that is based on p38 kinase alpha induced phosphorylation of EGFRP (epidermal growth factor receptor peptide, a 21 mer) in the presence of ^33P-ATP. Compounds were tested in 10 fold serial dilutions over the range of 100 μM to 0.001 μM in 10% DMSO. Each concentration of inhibitor was tested in triplicate. Compounds were evaluated in 50 μl reaction volumes in the presence of 25 mM Hepes pH 7.5, 10 mM magnesium acetate, 4% glycerol, 0.4% bovine serum albumin, 0.4 mM DTT, 50 μM unlabeled ATP, 25 μg EGFRP (200 μM), and 0.05 μCi gamma ^33P-ATP. Reactions were initiated by addition of 0.09 μg of activated, purified human GST-p38 kinase alpha. Activation was carried out using GST-MKK6 (5:1,p38:MKK6) for one hour at 30° C. in the presence of 50 μM ATP. Following incubation for 60 minutes at room temperature, the reaction was stopped by addition of 150 μl of AG 1X8 resin in 900 mM sodium formate buffer, pH 3.0 (1 volume resin to 2 volumes buffer). The mixture was mixed three times with pipetting and the resin was allowed to settle. A total of 50 μl of clarified solution head volume was transferred from the reaction wells to Microlite-2 plates. 150 μl of Microscint 40 was then added to each well of the Microlite plate, and the plate was sealed, mixed, and counted.

The subject of assay [2] is TNF-a, human peripheral blood mononuclear cells. Kind of assay: LPS stimulation of human PBMs, TNF-a by ELISA. The class given is cell-based. Conditions: Table 5; LPS-stimulated human PBM cells, TNF cell assay. Here is the method: Method of Isolation of Human Peripheral Blood Mononuclear Cells:
Human whole blood was collected in Vacutainer tubes containing EDTA as an anticoagulant. A blood sample (7 ml) was carefully layered over 5 ml PMN Cell Isolation Medium (Robbins Scientific) in a 15 ml round bottom centrifuge tube. The sample was centrifuged at 450-500×g for 30-35 minutes in a swing out rotor at room temperature. After centrifugation, the top band of cells were removed and washed 3 times with PBS w/o calcium or magnesium. The cells were centrifuged at 400×g for 10 minutes at room temperature. The cells were resuspended in Macrophage Serum Free Medium (Gibco BRL) at a concentration of 2 million cells/ml.
LPS Stimulation of Human PBMs:
Compounds were dissolved in DMSO initially and diluted in TCM for a final concentration of 0.1% DMSO. LPS (Calbiochem, 20 ng/ml, final concentration) was then added at a volume of 0.010 ml. Cultures were incubated overnight at 37° C. Supernatants were then removed and tested by ELISA for TNF-a and IL1-b. Viability was analyzed using MTS. After 0.1 ml supernatant was collected, 0.020 ml MTS was added to remaining 0.1 ml cells.
On the technique in general: In an ELISA, binding on a coated surface is turned into a signal by an enzyme label.

The test system of assay [3] is TNF-α, U937 human histiocytic lymphoma cell line. Kind of assay: LPS stimulation of TNF production by U937 cells. The assay is classed as cell-based. To be noted: Table 5; LPS-stimulated U937 cells, TNF-α; read-out: U937 Cell Assay IC50. Put shortly: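 U937 cells differentiated 24 h with 20 ng/ml PMA, rested 24-48 h, used at 2 million cells/ml. Compounds in 0.1% DMSO final; LPS (E. coli, 100 ng/ml final) stimulation for 4 h at 37° C. Released TNF-α measured by ELISA; IC50 (μM).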

In the next assay the target is T2, human p38 kinase alpha (Homo sapiens, UniProt Q16539).
T2 construct: GST (N, cleaved yes); made in house; host or cells: E. coli DH10B
Kind of assay: p38 kinase in vitro assay, phosphorylation of biotinylated PHAS-I with 32P-ATP. The class given is biochemical. Conditions: activated human p38 kinase alpha, PHAS-I substrate, 50 μM unlabeled ATP; read-out: p38 kinase IC50.

Assay [4] relates to collagen-induced arthritis, DBA/1 male mice. The assay is described as follows: Collagen-induced arthritis in mice. To be noted: oral gavage b.i.d., day 20 to day 56. The class given is in vivo, mouse. Here is the method:
Induction and Assessment of Collagen-induced Arthritis in Mice:
Arthritis was induced in mice according to the procedure set forth in J. M. Stuart, Collagen Autoimmune Arthritis, Annual Rev. Immunol. 2:199 (1984), which is incorporated herein by reference. Specifically, arthritis was induced in 8-12 week old DBA/1 male mice by injection of 50 μg of chick type II collagen (CII) (provided by Dr. Marie Griffiths, Univ. of Utah, Salt Lake City, Utah) in complete Freund's adjuvant (Sigma) on day 0 at the base of the tail. Injection volume was 100 μl. Animals were boosted on day 21 with 50 μg of CII in incomplete Freund's adjuvant (100 μl volume). Animals were evaluated several times each week for signs of arthritis. Any animal with paw redness or swelling was counted as arthritic. Scoring of arthritic paws was conducted in accordance with the procedure set forth in Wooley et al., Genetic Control of Type II Collagen Induced Arthritis in Mice: Factors Influencing Disease Suspectibility and Evidence for Multiple MHC Associated Gene Control., Trans. Proc., 15:180 (1983). Scoring of severity was carried out using a score of 1-3 for each paw (maximal score of 12/mouse). Animals displaying any redness or swelling of digits or the paw were scored as 1. Gross swelling of the whole paw or deformity was scored as 2. Ankylosis of joints was scored as 3. Animals were evaluated for 8 weeks. 8-10 animals per group were used.
Preparation and Administration of Compounds:
The compounds tested on mice having collagen-induced arthritis were prepared as a suspension in 0.5% methylcelluose (Sigma, St. Louis, Mo.), 0.025% Tween 20 (Sigma). The compound suspensions were administered by oral gavage in a volume of 0.1 ml b.i.d. Administration began on day 20 post collagen injection and continued daily until final evaluation on day 56. Scoring of arthritic paws was conducted as set forth above.

The subject of assay [5] is TNF alpha, BALB/c mice injected with LPS. Kind of assay: Mouse model of LPS-induced TNF alpha production. Conditions: Table 6; mouse LPS, head '8 h', dose 30, oral gavage. The class given is in vivo. Put shortly: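 Female BALB/c mice aged 10–12 weeks received 100 ng LPS i.v. and were bled 1 h later, with serum TNF measured by ELISA. Compound was given by oral gavage in mg/kg at the stated hours before LPS. Values are % inhibition against vehicle-treated LPS mice.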

The mark [6] stands for this setting: Table 10, 10% DMSO, @ 1.0 hour, read-out: p38α Kinase Assay IC50.

Where a name gives a salt, the structure may show the parent alone. Read-outs that look alike come from different tables or passages of the source.

T1 sequence (Q16539 whole entry): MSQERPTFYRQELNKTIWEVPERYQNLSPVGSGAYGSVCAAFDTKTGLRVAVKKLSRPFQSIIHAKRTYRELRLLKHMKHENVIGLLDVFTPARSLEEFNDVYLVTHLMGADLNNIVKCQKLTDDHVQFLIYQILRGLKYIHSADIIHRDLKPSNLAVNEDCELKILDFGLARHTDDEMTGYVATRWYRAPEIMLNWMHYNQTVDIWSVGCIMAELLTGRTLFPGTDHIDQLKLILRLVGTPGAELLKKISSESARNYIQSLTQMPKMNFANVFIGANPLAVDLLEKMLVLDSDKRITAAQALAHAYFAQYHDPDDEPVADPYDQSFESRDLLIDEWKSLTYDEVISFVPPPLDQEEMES
T2 sequence (Q16539 whole entry): as above

For the compound `Fc1ccc(-c2[nH]ncc2-c2ccnc(NCCn3ccnc3)c2)cc1` [Example A-268, 4-[3-(4-fluorophenyl)-1H-pyrazol-4-yl]-N-[2-(1H-imidazol-1-yl)ethyl]-2-pyridinamine], in assay [1] (Table 6, EGFRP assay procedure, read-out: p38^2 (p38α in vitro assay, EGFRP assay procedure) IC50), the IC50 is less than 10 nM.

As for `O[C@H]1CC[C@H](Nc2cc(-c3c[nH]nc3-c3ccc(F)cc3)ccn2)CC1` [Example A-386, trans-4-[[4-[3-(4-fluorophenyl)-1H-pyrazol-4-yl]-2-pyridinyl]amino]cyclohexanol], in assay [1] (Table 9, 10% DMSO, read-out: p38α Kinase Assay IC50), the IC50 is 16 nM.

Take `O=C(C(=C1SCS1)c1ccncc1)c1ccc(I)cc1` [Example A-401]: in assay [1] (setting [6]), the IC50 was 21200 nM.

In the case of `CCc1[nH]nc(-c2ccccc2)c1-c1ccncc1` [Example A-43], the values for the IC50 (in assay [2]; in assay [3]; on human p38 kinase alpha) were less than 100 nM, 243 nM and less than 100 nM, respectively.

In the case of `Fc1ccc(-c2[nH]nc(N3CCNCC3)c2-c2ccncc2)cc1` [Example A-172, 1-[5-(4-fluorophenyl)-4-(4-pyridinyl)-1H-pyrazol-3-yl]piperazine trihydrochloride], the “% Inhibition of Arthritis” value in assay [4] (100 mpk) is given as 49.3 @ 100 mpk %.

Consider `OCCn1cc(-c2ccncc2)c(-c2ccc(F)cc2)n1` [Example A-210, 3-(4-fluorophenyl)-4-(4-pyridinyl)-1H-pyrazole-1-ethanol], for which the “mLPS 8 h percent inhibition” value in assay [5] was 85%. The “% Inhibition of Arthritis” value in assay [4] (15 mpk) is recorded as 58.5 @ 15 mpk %.

Take `Fc1ccc(-c2[nH]nc(C3CC3)c2-c2ccncc2)cc1` [Example A-189, 4-[3-cyclopropyl-5-(4-fluorophenyl)-1H-pyrazol-4-yl]pyridine]: in assay [4] (30 mpk), the “% Inhibition of Arthritis” value is listed as 51.6 @ 30 mpk %.

`CCCc1[nH]nc(-c2cccc(C)c2)c1-c1ccncc1` [Example A-26]: the results for the half-inhibitory concentration (IC50) (in assay [2]; in assay [3]; on human p38 kinase alpha) were less than 100 nM, 29 nM and 700 nM, respectively.

As for `COc1ccc(-c2n[nH]c(N3CCN(C)CC3)c2-c2ccncc2)cc1` [Example A-415, 1-(4-(4-methoxyphenyl)-4-(4-pyridinyl)-1H-pyrazol-3-yl]-4-methylpiperazine], the IC50 in assay [1] (setting [6]) turned out to be 510 nM.
